Read-outs that look alike come from different tables or passages of the source.
Tests used:
Tacaribe virus [1] = test system: Tacaribe virus; parameters: species or system BALB/c mice; details: mouse, in vivo
[2] = mouse, in vivo, ip, 100 mg/kg/day
[3] = in vivo, 10 mg/kg
[4] = in vivo
Junin virus = format: cell-based; details: read-out: Junin (Plaque reduction) EC50
[5] = test system: S. typhimurium tester strains TA7007, TA7006 and TA98
Tacaribe virus [6] = format: cell-based; details: read-out: Tacaribe (Plaque reduction) EC50
Guanarito virus = format: cell-based; details: read-out: Guanarito (Plaque reduction) EC50
[7] = test system: ST-336 drug resistant Tacaribe virus variants (DR#1-4); format: cell-based
Tacaribe virus [8] = format: cell-based; details: for EC50: read-out: Tacaribe (CPE) EC50
Machupo virus = format: cell-based; details: read-out: Machupo (Plaque reduction) EC50
HSV-1 = format: cell-based, herpes simplex virus 1; details: read-out: HSV-1 (CPE) EC50
intact Tacaribe virion [9] = format: binding, Tacaribe virus
Tacaribe virus [10] = format: cell-based
Lassa virus = format: cell-based; details: read-out: Lassa (plaque reduction) EC50
Rotavirus = format: cell-based; details: read-out: Rotavirus (CPE) EC50
Candid-1 vaccine virus = format: cell-based, Junin virus (vaccine strain); details: read-out: Candid1 (CPE) EC50
Amapari virus = format: cell-based; details: read-out: Amapari (CPE) EC50
SARS-CoV = format: cell-based; details: read-out: SARS (CPE) EC50
intact Tacaribe virion [11] = format: binding, Tacaribe virus; remark: listed apart in the source
RSV-A = format: cell-based, Respiratory syncytial virus; details: read-out: RSV-A (CPE) EC50
LCMV = format: cell-based, lymphocytic choriomeningitis virus; details: read-out: LCMV (Elisa) EC50
vaccinia virus = format: cell-based; details: read-out: Vaccinia (CPE) EC50
CMV = format: cell-based, cytomegalovirus; details: read-out: CMV (Elisa) EC50
[12] = in vivo; remark: listed apart in the source
Ebola virus = format: cell-based; details: read-out: Ebola (CPE) EC50

CC(NC(=O)NNS(=O)(=O)c1ccc(OC(F)F)cc1)(C(F)(F)F)C(F)(F)F [ST-294, N-2-(1,1,1,3,3,3-hexafluoro-1-methylpropyl)-2-[(4-difluoromethoxyphenyl)sulfonyl]hydrazine-1-carboxamide]
efficacy (survival, delay in death) (Tacaribe virus [1]): showed efficacy
tolerability [2]: well tolerated
PK (newborn mouse/IP) Cmax [3]: 2910 ng/mL
PK (newborn mouse/IP) ½ life [3]: 3 h
PK (rat/oral) ½ life [4]: 2 h
Cmax (serum levels) ([4]; rat, po): 6670 ng/mL
EC50 (Junin virus): 300 nM
Genotoxicity (Ames test) [5]: negative
EC50 (Tacaribe virus [6]): 100 nM
EC50 (Guanarito virus): 1000 nM
susceptibility of drug resistant Tacaribe mutants (DR#1-4) [7]: cross-resistance
in vitro antiviral concentration required to inhibit Tacaribe virus CPE (EC50) (Tacaribe virus [8]): 0.066 µg/mL
EC50 (Tacaribe virus [8]): 120 nM
EC50 (Machupo virus): 300 nM
CC50 (Vero cells): > 50000 nM

CCC(NC(=O)NNS(=O)(=O)c1ccc(C)cc1)(C(F)(F)F)C(F)(F)F [ST-336]
EC50 (HSV-1): > 20000 nM
binding to intact virions (dialysis) (intact Tacaribe virion [9]): binds intact virions with a very slow dissociation constant
effect on Tacaribe virus yield (Tacaribe virus [10]): no effect on virus yield
effect on Tacaribe virus yield by time of addition (Tacaribe virus [10]): exerted its inhibitory effect only at the very early stage in the virus life cycle
EC50 (Junin virus): 150 nM
EC50 (Lassa virus): > 20000 nM
EC50 (Rotavirus): > 20000 nM
EC50 (Candid-1 vaccine virus): 62 nM
EC50 (Amapari virus): > 20000 nM
EC50 (Tacaribe virus [6]): 100 nM
EC50 (SARS-CoV): > 20000 nM
binding to intact virus (serial dilution) (intact Tacaribe virion [11]): binds with at least a slow Koff to intact protein present on Tacaribe virus
EC50 (Guanarito virus): 300 nM
growth of ST-336 DR isolates in the presence of compound [7]: unaffected
EC50 (RSV-A): > 20000 nM
EC50 (Tacaribe virus [8]): 55 nM
EC90 (Tacaribe virus [8]; read-out: Tacaribe (CPE) EC90): 125 nM
EC50 (Machupo virus): 150 nM
EC50 (LCMV): > 20000 nM
EC50 (vaccinia virus): > 20000 nM
EC50 (CMV): > 20000 nM
pharmacokinetic (PK) properties in rodents [12]: poor pharmacokinetic (PK) properties
EC50 (Ebola virus): > 20000 nM
